Reference: patent publication US6054437A, “Method for inducing death of neoplastic cells using piperazine derivatives” (Hitachi Chemical Research Center, Inc., priority 1997, dated 2000)
“Also recorded” adds a separate entry of the source. Counter-ions that a name gives are not always drawn. Where a SMILES comes first, the peptide text is derived from it. [ ]: non-standard residue; d: D form. Nle = CCCC[C@H](N)C(=O)O

Tests used:
[1] = tested on: cells; assay: Long-term assay (cell survival assay), toxicity to cells; assay type: cell-based; settings: long-term assays (cell survival assay)
Procedure: (§1) Cell survival was assayed in cultured tumor cells. From 500-1000 cells per well were plated in 24-welled culture dishes and exposed to drug for seven days. After drug exposure, a computerized cell imaging technique was utilized to ascertain the number of viable cells remaining in each culture. From the data, survival curves were plotted and a ED50 (drug concentration that permits 50% cell survival) were calculated.

[2] = tested on: cancer cells having multidrug resistance; assay: Induction of cell death in cancer / multidrug-resistant cancer cells (comparison compounds); assay type: cell-based; settings: data omitted
Source text: The specifically defined present piperazine derivatives having epoxy groups are believed to work through an epoxide group, but E-64 also contains an epoxide group. […] It is believed that not only epoxy group but also a piperazine ring are essential to induction of cell death in cancer. […] Other compounds having similar structures to the present piperazine derivatives, with respect to piperazine rings when present, and epoxy groups, have been tested (data omitted here), but no significant effect was observed, meaning that surprising and unexpected effects on induction of cell death in cancer, i.e., reversing mdr and in inducing death of cancer cells without significant toxicity to normal tissues, which appear to be pharmacologically beyond prevention of metastasis in cancer, are found in the specifically defined present compounds.

[3] = tested on: HS-578T (breast); assay: Cancer cell death assay (LDH release), HS-578T; assay type: cell-based, human; settings: for anti-neoplastic activity (LDH release) / potency compared to NCO-700: dose response (FIG. 7)
Procedure: (§2) 1. Cancer Cell Death Assay
(§3) Cell death was measured quantitatively by the release of a marker intracellular enzyme, lactate dehydrogenase (LDH), from damaged or killed cells. LDH released into the extracellular fluid, was measured 24 hours after drug exposure to cancer cells and the enzyme activity was determined by the method of Decker et al. (J. Immunolog Methods 15:61-99, 1988).
A series of analogs related to NCO-700 were assayed in the cancer cell death assay. […] It should be stressed that these analogs were tested alone, without any added chemotherapeutic agent.
Based on Experiment 1 above, the anti-cancer activity of NCO-700, TOP-008, and analogs, TOP-201, 202, 203, 204, 205, 206, 207, and 007, was tested in cancer cell death assays of human cancer cell line HS-578T. In FIGS. 34 (1,000 cells/well) and 35 (1,500 cells/well), a bar graph indicates the activity of a particular analog as measured by the % LDH released (DMSO, dimethyl sulfoxide=control), with higher values of LDH released indicating greater anti-neoplastic activity. All analogs were tested at a concentration of 25 μM.

[4] = in vivo; cited from earlier work
[5] = tested on: epidermoid carcinoma A431 cells; settings: cited from earlier work
[6] = tested on: breast cancer cell lines; assay: Cancer cell death assay (LDH release), breast lines; assay type: cell-based, human; settings: compound alone, 24 hours
Procedure: as §2, §3
(§4) All cell lines used in the present study were obtained from the American Type Tissue Culture Laboratory and cultured according to their specifications. All were human cancer lines unless otherwise noted. The following cell lines and their tissue of origin used in our studies were:
(§5) The first assays performed measured the anti-neoplastic activity of NCO-700, alone, in cell death assays of a wide variety of human cancer cells. The results of these experiments are shown in FIGS. 1-6, where a dose-response curve of NCO-700 versus % LDH release is plotted, with higher values of LDH released indicating greater anti-neoplastic activity (apoptosis).
(§6) In FIG. 8, a dose-response curve is shown of the effect of TOP-008 on the killing of breast, prostate and colon cell lines.

[7] = tested on: prostate cancer cell lines; assay: Cancer cell death assay (LDH release), prostate lines; assay type: cell-based, human; settings: compound alone, 24 hours
Procedure: as §2, §3, §4, §5, §6

[8] = tested on: colon cancer cell lines; assay: Cancer cell death assay (LDH release), colon lines; assay type: cell-based, human; settings: compound alone, 24 hours
Procedure: as §2, §3, §4, §5, §6

[9] = tested on: pancreatic cancer cell lines ASPC-1 and HS-766T; assay: Cancer cell death assay (LDH release), pancreatic lines; assay type: cell-based, human; settings: 25 μM, 24 hours
Procedure: as §3
As described in Experiment 1, the cancer cell death assays were performed to measure anti-neoplastic activity of the compounds, NCO-700, TOP-001, TOP-003, TOP-005, TOP-006, TOP-008, TOP-009, TOP-010, TOP-012, TOP-013, TOP-015, and TOP-017.
The following cell lines were obtained from the American Type Tissue Culture Laboratory and cultured according to their specifications: Human pancreatic cancer cell lines ASPC-1 and HS-766T.
The results of the experiments are shown in FIG. 32, where a bar graph indicates the activity of a particular analog as measured by the % LDH release stimulated by each analog for 24 hours, with higher values of LDH released indicating greater anti-neoplastic activity (apoptosis). All analogs were tested at a concentration of 25 μM.

[10] = tested on: WIDR (colon); assay: Cancer cell survival assay, WIDR; assay type: cell-based, human; settings: FIG. 16 versus FIG. 31
Procedure: as §1
The cancer cell survival assay is an important additional in vitro assay to assess the anti-neoplastic activity of compounds as the cells are given a prolonged exposure (seven days) to the drug. FIGS. 9-16 show the effect of increasing the dose of NCO-700 on the survival of a number of cancer cell lines. […] In the figures, the vertical axis is the object area, which is the number of surviving cancer cells calculated by a computer.
(§7) FIGS. 26-31 show the effect of increasing the dose of TOP-008 against a number of cancer cell lines. […] For example, if the activity of NCO-700 and TOP-008 are compared against the human colon cancer cell line WIDR (FIG. 16 in Experiment 1 versus FIG. 31) it is seen that the effective dose of TOP-008 is much lower in this particular assay.

[11] = tested on: HS-578T (breast); assay: Apoptosis detection assay (annexin V / propidium iodide, flow cytometry); assay type: cell-based, human; settings: 50 μM and 25 μM (FIG. 36)
Procedure: Anti-neoplastic activity of TOP-008 was tested using a commercially available kit, Apoptosis Detection Kit, from R & D SYSTEMS (Minnesota) in which annexin V, a member of the calcum and phospholipid binding proteins, is used to detect apoptosis, following the protocol recommended by the manufacturer. TOP-008 was tested at a concentration of 50 μM, using Human breast cancer cell line HS-578T. Cells were washed in cold PBS twice and resuspended in a small volume of 1× binding buffer. Fluorescein-labeled annexin V and propidium iodide were added to the cells. The cells expressing phosphatidylserine on the outer leaflet of cell membranes bind annexin V and cells with a compromised cell membrane allow propidium iodide to bind to the cellular DNA. The resulting cells when immediately analyzed by flow cytometry can present three potential populations of cells: live cells which will not stain with either fluorochrome, necrotic cells which will stain with both fluorochrome, and cells undergoing apoptosis which will stain only with the annexin V-FITC reagent. Analysis was performed on cytometers equipped with a single laser emitting excitation light at 488 nm. The annexin V-FITC-generated signal was detected in the FITC signal detector (FL1). The results are shown in FIG. 36 in which the […]. […]

[12] = tested on: PC-3 (prostate tumor cell line); assay: Apoptosis induced DNA fragmentation (agarose gel); assay type: cell-based, human; settings: PC-3, 25 μM, 48 hours
Procedure: PC-3, a prostate tumor cell line, was treated with 25 μM TOP-008, 50 μM NCO-700, or water for 48 hours. The DNA from each sample was purified by phenol extraction, and the fragmentation was resolved on an agarose gel.

[13] = tested on: cancer cell lines; assay: Cancer cell survival assay, a number of cancer cell lines; assay type: cell-based, human; settings: FIGS. 26-31, alone
Procedure: as §1, §7

With CCCC[C@@H](C=O)NC(=O)[C@H](CC(C)C)NC(=O)[C@H](CC(C)C)NC(C)=O [Calpain Inhibitor 1, N-acetyl-leu-leu-norleucinal] (Ac-Leu-Leu-[Nle]-aldehyde) the “toxicity to the cells” value [1] was “toxic to the cells”, the “toxicity to the cells” value ([1]; listed as Calpain inhibitor I) was “its toxicity may be an obstacle” and the “effectiveness in cancer cells having multidrug resistance / induction of cell death” value [2] was “slightly effective”.

With CC(C)C[C@H](NC(=O)[C@@H]1O[C@H]1C(=O)Oc1ccccc1)C(=O)N1CCN(C/C=C/c2ccccc2)CC1 [TOP-013, Bis[phenyl (2R,3R)-3-[(S)-3-methyl-1-[4-(3-phenyl-2-propenyl)piperazin-1-ylcarbonyl]butylcarbamoyl]oxirane-2-carboxylate] Sulfate] the “anti-neoplastic activity (LDH release) / potency compared to NCO-700” value ([3]; HS-578T, alone) was “higher potency”.

In the case of CC(C)C[C@H](NC(=O)[C@H]1O[C@@H]1C(=O)O)C(=O)NCCCCN=C(N)N [E-64], the “effectiveness in cancer cells having multidrug resistance / induction of cell death” value [2] is reported as “not to be particularly effective in cancer cells having multidrug resistance”.

For COc1cccc2c1C(=O)c1c(O)c3c(c(O)c1C2=O)C[C@@](O)(C(=O)CO)C[C@@H]3O[C@H]1C[C@H](N)[C@H](O)[C@H](C)O1 [adriamycin], the side effects [4] is listed as “inevitable side effects such as hair loss, weight loss, and liver and kidney damage”.

For CCOC(=O)[C@H]1O[C@@H]1C(=O)N[C@@H](CC(C)C)C(=O)NCCC(C)C [E-64-d], the cell cycle arrest ([5]; A431 cells, chemically defined medium) is listed as “arrested at mitotic metaphase” and the “effect on growth of cancer cells” value ([5]; Shoji-Kasai et al.) is listed as “slows the growth of cancer cells”.

With CCOC(=O)[C@@H]1O[C@H]1C(=O)N[C@@H](CC(C)C)C(=O)N1CCN(C/C=C/c2ccccc2)CC1 [TOP-008, Bis[ethyl (2R,3R)-3-[(S)-3-methyl-1-[4-(3-phenyl-2-propenyl)piperazin-1-ylcarbonyl]butylcarbamoyl]oxirane-2-carboxylate] Sulfate] the “anti-neoplastic activity (LDH release)” value [6] was “excellent activity”, the “anti-neoplastic activity (LDH release)” value [7] was “excellent activity” and the “anti-neoplastic activity (LDH release)” value [8] was “excellent activity”. For the same compound, the “anti-neoplastic activity (% LDH released)” value ([3]; HS-578T, 25 μM, 1,000 and 1,500 cells/well (FIGS. 34, 35)) was “very good anti-neoplastic activity”, the “kill rate of breast cancer cells relative to NCO-700” value ([3]; HS-578T, alone) was “approximately three-fold” and the “anti-neoplastic activity (LDH release) / potency compared to NCO-700” value ([3]; HS-578T, alone) was “higher potency; also recorded: highest potency”. For the same compound, the “anti-neoplastic potency relative to NCO-700” value ([3]; conclusion of Experiment 1) was “three-fold”, the “anti-neoplastic activity (% LDH release) compared with NCO-700” value [9] was “significantly greater activity than NCO-700 itself” and the “effective dose compared with NCO-700” value [10] was “much lower”. For the same compound, the induction of apoptosis [11] was “induced apoptosis in human breast cancer cells”, the DNA fragmentation [12] was “significant DNA fragmentation” and the “anti-neoplastic activity (cell survival)” value [13] was “highly active anti-neoplastic agent (apoptosis agent) and in some cases is much more active than NCO-700”.

In the case of CC(C)C[C@H](NC(=O)[C@@H]1O[C@H]1C(=O)OCc1ccccc1)C(=O)N1CCN(C/C=C/c2ccccc2)CC1 [TOP-009, Bis[benzyl (2R,3R)-3-[(S)-3-methyl-1-[4-(3-phenyl-2-propenyl)piperazin-1-ylcarbonyl]butylcarbamoyl]oxirane-2-carboxylate] Sulfate], the “anti-neoplastic activity (LDH release) / potency compared to NCO-700” value ([3]; HS-578T, alone) is reported as “higher potency” and the “anti-neoplastic activity (% LDH release) compared with NCO-700” value [9] is reported as “significantly greater activity than NCO-700 itself”.
